According to patent US20250282799A1, “SUBSTITUTED PYRIDO[4,3-d]PYRIMIDINES AS KRAS MODULATORS” (Alterome Therapeutics, Inc., priority 2023, published 2025):

Tests used:
[1] = tested on: KRAS G12V dependent lung adenocarcinoma cell line, NCI-H441; assay: Cellular pERK (Thr202/Tyr204) FRET/HTRF assay; assay type: cell-based; details: Homo sapiens
Summary of the method: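 IC50 reflects inhibition of ERK1/2 Thr202/Tyr204 phosphorylation, quantified by HTRF after a 1 hr treatment of KRAS G12V-driven NCI-H441 cells. DMSO served as negative control.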

KRAS (G12D)/CRAF = KRAS (G12D)/CRAF (Homo sapiens (Human), UniProt P01116, G12D); assay: TR-FRET biochemical KRAS:CRAF protein:protein interaction assay, KRAS (G12D); assay type: binding; details: GMPPNP loaded Biotin-KRAS (G12D), FLAG CRAF RBD; read-out: TR-Fret_PPI KRAS (G12D)/CRAF IC50
Method: (§1) The effect of test compounds on KRAS and CRAF protein: protein interaction (PPI) was measured by time resolved fluorescence resonance energy transfer (TR-FRET) Ras binding domain (RBD) assay, which uses a signal generated through fluorescent resonance energy transfer between a donor and an acceptor molecule when in close proximity to each other. Interference from buffer, media, etc. is reduced by dual-wavelength detection; the energy pulse from the excitation source is followed by a time delay, which allows interfering short-lived fluorescence to decay (Degorce et al. 2009).
(§2) The KRAS: CRAF PPI assay can be utilized to identify KRAS ‘ON’ state inhibitors, as the KRAS protein is loaded with GMPPNP (a non-hydrolyzable GTP analog), which represents the active KRAS ‘ON’ state. FLAG-tagged CRAF RBD binding to the GMPPNP loaded biotin-tagged KRAS will result in a fluorescence energy transfer from the donor (Tb-anti-FLAG, emission 620 nm) to the acceptor (SA-XL665, emission 665 nm). Disruption of KRAS and CRAF binding will reduce the TR-FRET signal.
(§3) Test compound was dissolved in DMSO to create a 1 mM stock solution. A 45 μL volume of stock solution was transferred to a 384well polypropylene plate. A 3fold, 10point dilution was performed by transferring 15 μL of test compound solution into 30 μL of DMSO.
(§4) Assay buffer A was prepared with […] Hepes, pH7.3, 0.002% Tween 20, 0.1% BSA, […] NaCl, 5 mM MgCl2, and 10 uM GMP-PNP. 4× KRAS Solution was prepared with 80 nM of Biotin-KRAS (G12D/V), GMPPNP loaded or Biotin-KRAS (WT), GMPPNP loaded protein in assay buffer A. 4× Raf RBD Solution was prepared with 400 nM FLAG CRAF RBD in assay buffer A. 2× Detection Mixture was prepared with 2 nM Tb-anti-FLAG antibody and 10 nM and 10 nM SA-XL665 in assay buffer A.
(§5) A volume of 100 nL of 100× test compound working solution or DMSO vehicle control solution was dispensed to each well (duplicate for each concentration) of a 384-well ProxiPlate Plus assay plate. A volume of 2.5 μL of 4× KRAS Solution was added to each well of the assay plate for a final concentration of 20 nM Biotin-KRAS (G12D/V),GMPPNP loaded or 20 nM Biotin-KRAS (WT), GMPPNP. For low control, add 2.5 μL of assay buffer (no KRAS protein). Pre-incubate assay plate for 30 minutes at room temperature. Following pre-incubation of test compound or DMSO with Biotin-KRAS (G12D/V),GMPPNP loaded or Biotin-KRAS (WT),GMPPNP, a volume of 2.5 μL of 4× FLAG cRAF RBD Solution was added to each well of the assay plate for a final concentration of 100 nM FLAG CRAF RBD. The assay plate was subjected to centrifuge at 1000 rpm for 1 minute and pre-incubate assay plate for 150 minutes at room temperature. Following the pre-incubation with FLAG cRAF RBD, a volume of 5 μl of 2× Detection Mixture was added to each well of the assay plate for a final concentration of 1 nM Tb-anti-FLAG and 5 nM SA-XL665. The assay plate was centrifuged at 1000 rpm for 1 minute and incubated for 90 minutes at room temperature. TR-FRET signal was measured on a BioTek Synergy Neo2 microplate reader (excitation at 340 nm, emission at 665 nn and 620 nm).
(§6) TR-FRET ratios were calculated by dividing the acceptor emission value (665 nm) by the donor emission value (620 nm) for each sample.
(§7) Percent inhibition was calculated by multiplying the normalized TR-FRET ratio by 100, where TR-FRET ratio^HIGH was the TR-FRET ratio obtained from wells with 1% DMSO and complete reaction mixture, TR-FRET ratio^LOW was the ratio obtained from wells with 1% DMSO and reaction mixture without KRAS protein and TR-FRET ratio^SAMPLE was the TR-FRET ratio from wells with test compound and complete reaction mixture. The IC50 values were calculated from normalized TR-FRET ratios with the Levenberg-Marquardt 4 parameter fitting procedure.
(§8) This assay quantifies the interaction of a KRAS mutant protein (e.g., G12V) with the CRAF Ras-binding domain (RBD). […]

KRAS (G12V)/CRAF = KRAS (G12V)/CRAF (Homo sapiens (Human), UniProt P01116, G12V); assay: TR-FRET biochemical KRAS:CRAF protein:protein interaction assay, KRAS (G12V); assay type: binding; details: GMPPNP loaded Biotin-KRAS (G12V), FLAG CRAF RBD; read-out: TR-Fret_PPI KRAS (G12V)/CRAF IC50
Method: as §1, §2, §3, §4, §5, §6, §7, §8

[2] = NCI-H441, cellular pERK (Thr202/Tyr204) HTRF, NCI-H441 cells

Chain of KRAS (G12D)/CRAF (P01116-2 other isoform, or with tags, fused parts or gaps G12D): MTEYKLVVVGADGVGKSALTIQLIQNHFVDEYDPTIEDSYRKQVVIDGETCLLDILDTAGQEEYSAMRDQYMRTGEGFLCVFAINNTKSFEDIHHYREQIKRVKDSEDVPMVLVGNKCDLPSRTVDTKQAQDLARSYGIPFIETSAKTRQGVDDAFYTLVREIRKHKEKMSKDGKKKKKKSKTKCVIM
Chain of KRAS (G12V)/CRAF (P01116-2 other isoform, or with tags, fused parts or gaps G12V): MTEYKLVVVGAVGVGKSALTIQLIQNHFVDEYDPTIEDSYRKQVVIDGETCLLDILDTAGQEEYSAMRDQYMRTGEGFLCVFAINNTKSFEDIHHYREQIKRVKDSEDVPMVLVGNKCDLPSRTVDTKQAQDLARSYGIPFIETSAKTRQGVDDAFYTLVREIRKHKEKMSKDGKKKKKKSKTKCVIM

Structure (SMILES) | IC50 [1, 2] | IC50 (KRAS (G12D)/CRAF) | IC50 (KRAS (G12V)/CRAF) | IC50 ([1]; NCI-H441, pERK HTRF, NCI-H441 cells (KRAS G12V))
[2H]C([2H])(Oc1nc(N2CCOC[C@@H]3[C@H](F)[C@@H]32)c2cnc(-c3cc(N)cc4ccc(F)c(C#C)c34)c(F)c2n1)[C@@]12CCCN1C[C@H](F)C2 [Example 224, 5-ethynyl-6-fluoro-4-(8-fluoro-4-((1R,7R,8S)-8-fluoro-5-oxa-2-azabicyclo[5.1.0]octan-2-yl)-2-(((2R,7aS)-2-fluorotetrahydro-1H-pyrrolizin-7a(5H)-yl)methoxy-d2)pyrido[4,3-d]pyrimidin-7-yl)naphthalen-2-amine] | 500 to 10000 nM | > 3000 nM | > 3000 nM | 
[2H]C([2H])(Oc1nc(N2CCCO[C@@H]3[C@@H](Cl)[C@@H]32)c2cnc(-c3cc(N)cc4ccc(F)c(C#C)c34)c(F)c2n1)[C@@]12CCCN1C[C@H](F)C2 [Example 317, 4-(4-((1S,7R,8S)-8-chloro-2-oxa-6-azabicyclo[5.1.0]octan-6-yl)-8-fluoro-2-(((2R,7aS)-2-fluorotetrahydro-1H-pyrrolizin-7a(5H)-yl)methoxy-d2)pyrido[4,3-d]pyrimidin-7-yl)-5-ethynyl-6-fluoronaphthalen-2-amine] | 50 to 500 nM | 3000 nM | 3000 nM | 
[2H]C([2H])(Oc1nc(N2CCCC[C@H]3[C@@H](F)[C@H]32)c2cnc(-c3cc(N)cc4cc(F)c(F)c(C#C)c34)c(F)c2n1)[C@@]12CCCN1C[C@H](F)C2 [Example 13, 5-Ethynyl-6,7-difluoro-4-(8-fluoro-4-((1S,7R,8R)-8-fluoro-2-azabicyclo[5.1.0]octan-2-yl)-2-(((2R,7aS)-2-fluorotetrahydro-1H-pyrrolizin-7a(5H)-yl)methoxy-d2)pyrido[4,3-d]pyrimidin-7-yl)naphthalen-2-amine] |  | 430 nM | 2830 nM | 50 to 500 nM
[2H]C([2H])(Oc1nc(N2CCCC[C@H]3[C@H](Cl)[C@H]32)c2cnc(-c3cc(N)cc4ccc(F)c(C#C)c34)c(F)c2n1)[C@@]12CCCN1C[C@H](F)C2 [Example 342, 4-(4-((1S,7R,8S)-8-chloro-2-azabicyclo[5.1.0]octan-2-yl)-8-fluoro-2-(((2R,7aS)-2-fluorotetrahydro-1H-pyrrolizin-7a(5H)-yl)methoxy-d2)pyrido[4,3-d]pyrimidin-7-yl)-5-ethynyl-6-fluoronaphthalen-2-amine] | < 50 nM | 9.04 nM | 54.7 nM | 
[2H]C([2H])(Oc1nc(N2CCOC[C@H]3[C@H](Cl)[C@H]32)c2cnc(-c3cc(N)cc4ccc(F)c(C#C)c34)c(F)c2n1)[C@@]12CCCN1[C@H](C)[C@H](F)C2 [Example 340, 4-(4-((1S,7S,8S)-8-Chloro-5-oxa-2-azabicyclo[5.1.0]octan-2-yl)-8-fluoro-2-(((2R,3R,7aS)-2-fluoro-3-methyltetrahydro-1H-pyrrolizin-7a(5H)-yl)methoxy-d2)pyrido[4,3-d]pyrimidin-7-yl)-5-ethynyl-6-fluoronaphthalen-2-amine] | < 50 nM | 7.14 nM | 50.1 nM | 
[2H]C([2H])(Oc1nc(N2CCCC[C@@H]3[C@@H](Cl)[C@@H]32)c2cnc(-c3cc(N)cc4ccc(F)c(C#C)c34)c(F)c2n1)[C@@]12CCCN1C[C@H](F)C2 [Example 341, 4-(4-((1R,7S,8R)-8-chloro-2-azabicyclo[5.1.0]octan-2-yl)-8-fluoro-2-(((2R,7aS)-2-fluorotetrahydro-1H-pyrrolizin-7a(5H)-yl)methoxy-d2)pyrido[4,3-d]pyrimidin-7-yl)-5-ethynyl-6-fluoronaphthalen-2-amine] | 500 to 10000 nM | 1790 nM | ≥ 10000 nM | 
[2H]C([2H])(Oc1nc(N2CCCO[C@H]3[C@H](Cl)[C@H]32)c2cnc(-c3cc(N)cc4ccc(F)c(C#C)c34)c(F)c2n1)[C@@]12CCCN1C[C@H](F)C2 [Example 316, 4-(4-((1R,7S,8R)-8-Chloro-2-oxa-6-azabicyclo[5.1.0]octan-6-yl)-8-fluoro-2-(((2R,7aS)-2-fluorotetrahydro-1H-pyrrolizin-7a(5H)-yl)methoxy-d2)pyrido[4,3-d]pyrimidin-7-yl)-5-ethynyl-6-fluoronaphthalen-2-amine] | < 50 nM | 14.1 nM | 51.2 nM | 
[2H]C([2H])(Oc1nc(N2CCOC[C@@H]3[C@@H](F)[C@@H]32)c2c(OC)nc(-c3cc(N)cc4ccc(F)c(C#C)c34)c(F)c2n1)[C@@]12CCCN1C[C@H](F)C2 [Example 223, 5-ethynyl-6-fluoro-4-(8-fluoro-4-((1R,7R,8R)-8-fluoro-5-oxa-2-azabicyclo[5.1.0]octan-2-yl)-2-(((2R,7aS)-2-fluorotetrahydro-1H-pyrrolizin-7a(5H)-yl)methoxy-d2)-5-methoxypyrido[4,3-d]pyrimidin-7-yl)naphthalen-2-amine] | 500 to 10000 nM | 3000 nM | 3000 nM | 
[2H]C([2H])(Oc1nc(N2CC[C@@H](C#N)C[C@@H]3[C@@H](F)[C@@H]32)c2cnc(-c3cc(N)cc4ccc(F)c(C#C)c34)c(F)c2n1)[C@@]12CCCN1C[C@H](F)C2 [Example 305, (1R,5S,7S,8R)-2-(7-(3-amino-8-ethynyl-7-fluoronaphthalen-1-yl)-8-fluoro-2-(((2R,7aS)-2-fluorotetrahydro-1H-pyrrolizin-7a(5H)-yl)methoxy-d2)pyrido[4,3-d]pyrimidin-4-yl)-8-fluoro-2-azabicyclo[5.1.0]octane-5-carbonitrile] | 50 to 500 nM |  |  | 
C#Cc1c(F)ccc2cc(N)cc(-c3ncc4c(N5CCOC[C@H]6[C@H](F)[C@H]65)nc(OC[C@@]56CC[C@@H](C)N5C[C@H](F)C6)nc4c3F)c12 [Example 287, 5-Ethynyl-6-fluoro-4-(8-fluoro-2-(((2R,5R,7aS)-2-fluoro-5-methyltetrahydro-1H-pyrrolizin-7a(5H)-yl)methoxy)-4-((1S,7S,8S)-8-fluoro-5-oxa-2-azabicyclo[5.1.0]octan-2-yl)pyrido[4,3-d]pyrimidin-7-yl)naphthalen-2-amine] | < 50 nM |  |  | 
C#Cc1c(F)ccc2cc(N)cc(-c3ncc4c(N5CCOC[C@H]6[C@H](F)[C@H]65)nc(OC[C@@]56CC[C@H](C)N5C[C@H](F)C6)nc4c3F)c12 [Example 259, 5-Ethynyl-6-fluoro-4-(8-fluoro-2-(((2R,5S,7aS)-2-fluoro-5-methyltetrahydro-1H-pyrrolizin-7a(5H)-yl)methoxy)-4-((1S,7S,8S)-8-fluoro-5-oxa-2-azabicyclo[5.1.0]octan-2-yl)pyrido[4,3-d]pyrimidin-7-yl)naphthalen-2-amine] | < 50 nM |  |  | 
